Experimental data: patent publication US8420670B2 (Abbott Laboratories, priority 2007, dated 2013)
pIC50, pKi: −log10 of the molar value. Where a name gives a salt, the structure may show the parent alone. Each block holds one compound with its values, some of them ahead of it.

Legend:
[1] = biological target: T1, Human GlyT1c (Homo sapiens, UniProt P48067); test: Glycine uptake in recombinant hGlyT1 expressing cells; assay type: cell-based; details: hGlyT1c_5_CHO cells; [3H]-glycine uptake, 60-120 min
T1 construct: expressed in transfected cells; host or cells: CHO (hGlyT1c_5_CHO clone)
T1 sequence (P48067 1-706): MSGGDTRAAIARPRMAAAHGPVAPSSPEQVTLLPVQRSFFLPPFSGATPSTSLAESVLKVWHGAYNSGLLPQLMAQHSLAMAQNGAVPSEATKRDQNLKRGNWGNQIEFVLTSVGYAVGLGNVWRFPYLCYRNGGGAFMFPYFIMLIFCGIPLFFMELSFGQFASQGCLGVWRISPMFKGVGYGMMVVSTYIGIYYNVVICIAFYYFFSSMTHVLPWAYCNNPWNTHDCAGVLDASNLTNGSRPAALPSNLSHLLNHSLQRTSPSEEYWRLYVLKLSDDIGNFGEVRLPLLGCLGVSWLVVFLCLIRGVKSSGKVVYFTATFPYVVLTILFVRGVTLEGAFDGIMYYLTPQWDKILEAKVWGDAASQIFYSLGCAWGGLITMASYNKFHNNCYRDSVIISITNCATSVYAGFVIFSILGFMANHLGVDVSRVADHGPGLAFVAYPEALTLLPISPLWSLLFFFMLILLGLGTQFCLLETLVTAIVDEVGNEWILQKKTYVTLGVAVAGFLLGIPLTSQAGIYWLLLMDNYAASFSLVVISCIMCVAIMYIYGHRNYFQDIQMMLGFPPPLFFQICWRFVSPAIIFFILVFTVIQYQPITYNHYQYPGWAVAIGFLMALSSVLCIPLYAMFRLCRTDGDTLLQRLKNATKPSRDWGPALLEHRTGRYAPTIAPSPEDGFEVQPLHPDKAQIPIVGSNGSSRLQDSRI
In short: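 Recombinant hGlyT1c CHO cells were washed in HBSS with 5 mM L-alanine, then given inhibitor and [3H]-glycine. Uptake was counted continuously by solid-phase scintillation for up to 3 h, with nonspecific uptake defined by 10 μM Org24598. IC50 came from four-parameter logistic fits over the linear 60–120 min range.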

[2] = biological target: T2, human GlyT1c transporter (Homo sapiens, UniProt P48067); test: [3H]-(R)-NPTS radioligand binding assay using recombinant hGlyT1 expressing cell membranes; details: 0.5 nM [3H]-(R)-NPTS, apparent Ki via Cheng-Prusoff, read-out: [3H]-(R)-NPTS bindung Ki
T2 construct: expressed in transfected cells; host or cells: recombinant hGlyT1-expressing cells
T2 sequence (P48067 1-706): T1 sequence (P48067 1-706)
In short: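 Membranes expressing human GlyT1c (50 μg/ml protein) were incubated with 0.5 nM [3H]-(R)-NPTS in pH 7.5 HEPES/NaCl buffer with 1% DMSO for 1 h at room temperature, then filtered. Non-specific binding was defined with 10 μM Org24598, and IC50 values were converted to apparent Ki by Cheng-Prusoff.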

Structure (SMILES): C=CCN1CCCC[C@H]1[C@@H](Nc1cc(C)nc2c(OCCNC(=O)OC(C)(C)C)cccc12)c1ccccc1 [Example 33, [2-(4-{[(S)—((S)-1-Allyl-piperidin-2-yl)-phenylmethyl]-amino}-2-methylquinolin-8-yloxy)ethyl]-carbamate tert-butyl ester]
pIC50 [1]: ≥ 5.00
pKi [2]: ≥ 5.00

Structure (SMILES): CCS(=O)(=O)NCCOc1cccc2c(NCc3ccc(Cl)c(Cl)c3)cc(C)nc12 [Example 27, Ethanesulfonic {2-[4-(3,4-Dichloro-benzylamino)-2-methylquinolin-8-yloxy]-ethyl}-amide]
pIC50 [1]: ≥ 8.00
pKi [2]: ≥ 8.00

Structure (SMILES): Cc1cc(NCc2ccc(Cl)c(Cl)c2)c2cccc(N3CCOCC3)c2n1 [Example 6, (3,4-Dichlorobenzyl)-(2-methyl-8-morpholin-4-yl-quinolin-4-yl)-amine hydrobromide]
pIC50 [1]: ≥ 6.00
pKi [2]: ≥ 7.00

Structure (SMILES): Cc1cc(NCc2ccc(Cl)cc2Cl)c2cccc(OCCNS(C)(=O)=O)c2n1 [Example 38, N-{2-[4-(2,4-Dichlorobenzylamino)-2-methylquinolin-8-yloxy]-ethyl}-methanesulfonamide]
pIC50 [1]: ≥ 6.00
pKi [2]: ≥ 7.00

Structure (SMILES): Cc1cc(NCc2ccc(Cl)c(Cl)c2)c2cccc(OCCNS(=O)(=O)c3ccccc3)c2n1 [Example 23, hydrochloride]
pIC50 [1]: ≥ 6.00
pKi [2]: ≥ 8.00

Structure (SMILES): Cc1cc(NCc2ccc(Cl)c(Cl)c2)c2cccc(S(=O)(=O)NC(C)C)c2n1 [Example 3, 4-(3,4-Dichlorobenzylamino)-2-methyl-quinoline-8-sulfonic isopropylamide]
pIC50 [1]: ≥ 5.00
pKi [2]: ≥ 6.00

Other lines, results leading:

pIC50 [1]: ≥ 7.00
pKi [2]: ≥ 7.00
Structure (SMILES): Cc1cc(NCc2ccc(Cl)c(Cl)c2)c2cccc(OCCN3CCOCC3)c2n1 [Example 48, (3,4-Dichlorobenzyl)-[2-methyl-8-(2-morpholin-4-yl-ethoxy)-quinolin-4-yl]-amine dihydrochloride]

pIC50 [1]: ≥ 7.00
pKi [2]: ≥ 7.00
Structure (SMILES): CN(C)c1cc(NCc2ccc(Cl)c(Cl)c2)c2ccccc2n1 [Example 95, N*4*-(3,4-Dichlorobenzyl)-N*2*,N*2*-dimethylquinoline-2,4-diamine]

pIC50 [1]: ≥ 6.00
pKi [2]: ≥ 6.00
Structure (SMILES): Cc1cc(N[C@@H](c2ccccc2)[C@@H]2CCCCN2)c2ccccc2n1 [Example 60, (2-Methylquinolin-4-yl)-((S)-phenyl-(S)-piperidin-2-yl-methyl)-amine]

pIC50 [1]: ≥ 7.00
pKi [2]: ≥ 8.00
Structure (SMILES): COc1cccc2c(NC(CN(C)C)c3ccc(Cl)cc3)cc(C)nc12 (racemic) [Example 68, (rac)-1-(4-Chlorophenyl)-N*1*-(8-methoxy-2-methylquinolin-4-yl)-N*2*,N*2*-dimethylethane-1,2-diamine dihydrochloride]

pIC50 [1]: ≥ 6.00
pKi [2]: ≥ 6.00
Structure (SMILES): Cc1cc(NCc2ccc(F)cc2)c2ccccc2n1 [Example 90, (4-Fluorobenzyl)-(2-methylquinoline-4-yl)-amine]

pIC50 [1]: ≥ 6.00
pKi [2]: ≥ 6.00
Structure (SMILES): CSc1cccc2c(NCc3ccc(Cl)cc3)cc(C)nc12 [Example 83, (4-Chlorobenzyl)-(2-methyl-8-methylsulfanylquinolin-4-yl)-amine]

pIC50 [1]: ≥ 4.00
pKi [2]: ≥ 5.00
Structure (SMILES): COc1cccc2c(NC(CN3CCCCC3)c3ccccc3)cc(C)nc12 (stereo not drawn) [Example 63, (8-Methoxy-2-methyl-quinolin-4-yl)-(1-phenyl-2-piperidin-1-yl)-ethylamine]

pIC50 [1]: ≥ 6.00
pKi [2]: ≥ 7.00
Structure (SMILES): COc1cccc2c(N[C@H](C)c3ccc(Cl)cc3)cc(C)nc12 [Example 58, [(R)-1-(4-Chlorophenyl)-ethyl]-(8-methoxy-2-methylquinolin-4-yl)-amine]

pIC50 [1]: ≥ 5.00
pKi [2]: ≥ 7.00
Structure (SMILES): Cc1cc(N[C@@H](c2ccccc2)[C@@H]2CCCCN2)c2cccc(OCCNS(=O)(=O)c3cccnc3)c2n1 [Example 40, Pyridin-3-sulfonic (2-{2-methyl-4-[((S)-phenyl-(S)-piperidin-2-yl-methyl)-amino]-quinolin-8-yloxy}-ethyl)-amide dihydrochloride]
